Assay results from patent US9340590B2 (priority 2011, dated 2016).
Positions of bridges follow the written chain, without caps; N, C: chain ends. Non-standard residues stand in square brackets, D forms with d. Residues, ends and D or L forms follow the SMILES beside them. Groups on a side chain read outwards from the residue. *: point of attachment. Pent4ynoyl = C#CCCC(=O)*; Pra = C#CC[C@H](N)C(=O)O; Abu = CC[C@H](N)C(=O)O

Key:
Experiment in all cases: cell-based
hNav1.7 = hNav1.7 (Homo sapiens, UniProt Q15858); type: cell-based; conditions: IonWorks Quattro, use-dependent block, hNav1.7; read-out: IWQ Use Nav1.7
hNav1.5 = hNav1.5 (Homo sapiens, UniProt Q14524); conditions: IonWorks Quattro, use-dependent block, hNav1.5; read-out: IWQ Use Nav1.5
hNav1.3 = hNav1.3 (Homo sapiens, UniProt Q9NY46); conditions: IonWorks Quattro, use-dependent block, hNav1.3; read-out: IWQ Use Nav1.3

Chain of hNav1.5 (Q14524 whole entry, looked up): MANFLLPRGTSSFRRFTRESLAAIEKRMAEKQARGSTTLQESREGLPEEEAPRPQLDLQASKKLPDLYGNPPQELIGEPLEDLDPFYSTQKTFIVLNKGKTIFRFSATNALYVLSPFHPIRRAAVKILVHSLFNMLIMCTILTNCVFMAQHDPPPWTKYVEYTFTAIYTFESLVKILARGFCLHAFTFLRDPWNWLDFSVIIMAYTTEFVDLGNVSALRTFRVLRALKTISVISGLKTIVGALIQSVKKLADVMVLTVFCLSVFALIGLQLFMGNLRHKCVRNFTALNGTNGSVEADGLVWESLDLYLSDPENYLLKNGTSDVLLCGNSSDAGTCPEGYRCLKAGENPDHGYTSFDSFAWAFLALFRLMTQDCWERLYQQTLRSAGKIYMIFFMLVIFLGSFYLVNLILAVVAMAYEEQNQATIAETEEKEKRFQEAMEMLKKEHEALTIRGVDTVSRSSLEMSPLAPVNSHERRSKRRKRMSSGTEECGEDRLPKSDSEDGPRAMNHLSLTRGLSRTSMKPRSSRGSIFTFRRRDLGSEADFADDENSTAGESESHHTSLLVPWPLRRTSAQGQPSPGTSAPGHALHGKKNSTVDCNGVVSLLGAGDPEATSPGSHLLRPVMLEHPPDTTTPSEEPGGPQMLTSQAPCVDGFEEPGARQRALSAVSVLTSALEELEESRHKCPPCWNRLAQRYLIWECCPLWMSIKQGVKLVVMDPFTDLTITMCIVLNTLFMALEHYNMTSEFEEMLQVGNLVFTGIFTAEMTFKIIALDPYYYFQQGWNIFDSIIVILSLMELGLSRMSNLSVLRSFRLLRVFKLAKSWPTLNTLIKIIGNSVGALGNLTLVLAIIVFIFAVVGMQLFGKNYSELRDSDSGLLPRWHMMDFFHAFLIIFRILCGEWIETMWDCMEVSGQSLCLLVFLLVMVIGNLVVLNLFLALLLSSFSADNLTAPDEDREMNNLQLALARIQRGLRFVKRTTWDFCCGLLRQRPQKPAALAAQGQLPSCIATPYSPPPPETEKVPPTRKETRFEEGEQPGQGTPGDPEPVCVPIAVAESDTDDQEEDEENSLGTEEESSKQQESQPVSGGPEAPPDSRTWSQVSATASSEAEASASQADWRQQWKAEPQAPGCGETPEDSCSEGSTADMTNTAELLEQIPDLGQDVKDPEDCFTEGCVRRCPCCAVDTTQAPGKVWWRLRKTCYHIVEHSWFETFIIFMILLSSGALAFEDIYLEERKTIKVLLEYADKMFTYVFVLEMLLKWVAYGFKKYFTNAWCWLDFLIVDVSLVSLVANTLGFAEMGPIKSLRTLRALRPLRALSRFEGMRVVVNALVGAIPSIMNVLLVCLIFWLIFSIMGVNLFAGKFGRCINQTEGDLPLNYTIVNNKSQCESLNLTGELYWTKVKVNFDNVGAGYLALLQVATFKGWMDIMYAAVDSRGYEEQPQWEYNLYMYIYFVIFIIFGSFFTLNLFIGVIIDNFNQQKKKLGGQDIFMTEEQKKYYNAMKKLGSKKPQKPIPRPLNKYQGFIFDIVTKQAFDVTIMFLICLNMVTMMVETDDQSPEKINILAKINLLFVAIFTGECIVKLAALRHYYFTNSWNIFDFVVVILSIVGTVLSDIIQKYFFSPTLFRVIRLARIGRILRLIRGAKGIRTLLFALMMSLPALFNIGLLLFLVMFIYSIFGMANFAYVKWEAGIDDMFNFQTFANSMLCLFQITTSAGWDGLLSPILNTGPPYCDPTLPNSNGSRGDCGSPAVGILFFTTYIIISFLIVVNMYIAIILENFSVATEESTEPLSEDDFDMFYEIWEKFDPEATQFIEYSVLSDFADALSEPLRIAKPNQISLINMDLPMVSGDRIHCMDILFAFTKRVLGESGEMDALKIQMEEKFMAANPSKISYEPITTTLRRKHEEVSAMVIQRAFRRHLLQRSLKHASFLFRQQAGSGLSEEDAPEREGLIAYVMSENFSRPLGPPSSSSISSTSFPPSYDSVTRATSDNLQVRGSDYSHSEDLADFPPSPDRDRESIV
Chain of hNav1.7 (Q15858 whole entry, looked up): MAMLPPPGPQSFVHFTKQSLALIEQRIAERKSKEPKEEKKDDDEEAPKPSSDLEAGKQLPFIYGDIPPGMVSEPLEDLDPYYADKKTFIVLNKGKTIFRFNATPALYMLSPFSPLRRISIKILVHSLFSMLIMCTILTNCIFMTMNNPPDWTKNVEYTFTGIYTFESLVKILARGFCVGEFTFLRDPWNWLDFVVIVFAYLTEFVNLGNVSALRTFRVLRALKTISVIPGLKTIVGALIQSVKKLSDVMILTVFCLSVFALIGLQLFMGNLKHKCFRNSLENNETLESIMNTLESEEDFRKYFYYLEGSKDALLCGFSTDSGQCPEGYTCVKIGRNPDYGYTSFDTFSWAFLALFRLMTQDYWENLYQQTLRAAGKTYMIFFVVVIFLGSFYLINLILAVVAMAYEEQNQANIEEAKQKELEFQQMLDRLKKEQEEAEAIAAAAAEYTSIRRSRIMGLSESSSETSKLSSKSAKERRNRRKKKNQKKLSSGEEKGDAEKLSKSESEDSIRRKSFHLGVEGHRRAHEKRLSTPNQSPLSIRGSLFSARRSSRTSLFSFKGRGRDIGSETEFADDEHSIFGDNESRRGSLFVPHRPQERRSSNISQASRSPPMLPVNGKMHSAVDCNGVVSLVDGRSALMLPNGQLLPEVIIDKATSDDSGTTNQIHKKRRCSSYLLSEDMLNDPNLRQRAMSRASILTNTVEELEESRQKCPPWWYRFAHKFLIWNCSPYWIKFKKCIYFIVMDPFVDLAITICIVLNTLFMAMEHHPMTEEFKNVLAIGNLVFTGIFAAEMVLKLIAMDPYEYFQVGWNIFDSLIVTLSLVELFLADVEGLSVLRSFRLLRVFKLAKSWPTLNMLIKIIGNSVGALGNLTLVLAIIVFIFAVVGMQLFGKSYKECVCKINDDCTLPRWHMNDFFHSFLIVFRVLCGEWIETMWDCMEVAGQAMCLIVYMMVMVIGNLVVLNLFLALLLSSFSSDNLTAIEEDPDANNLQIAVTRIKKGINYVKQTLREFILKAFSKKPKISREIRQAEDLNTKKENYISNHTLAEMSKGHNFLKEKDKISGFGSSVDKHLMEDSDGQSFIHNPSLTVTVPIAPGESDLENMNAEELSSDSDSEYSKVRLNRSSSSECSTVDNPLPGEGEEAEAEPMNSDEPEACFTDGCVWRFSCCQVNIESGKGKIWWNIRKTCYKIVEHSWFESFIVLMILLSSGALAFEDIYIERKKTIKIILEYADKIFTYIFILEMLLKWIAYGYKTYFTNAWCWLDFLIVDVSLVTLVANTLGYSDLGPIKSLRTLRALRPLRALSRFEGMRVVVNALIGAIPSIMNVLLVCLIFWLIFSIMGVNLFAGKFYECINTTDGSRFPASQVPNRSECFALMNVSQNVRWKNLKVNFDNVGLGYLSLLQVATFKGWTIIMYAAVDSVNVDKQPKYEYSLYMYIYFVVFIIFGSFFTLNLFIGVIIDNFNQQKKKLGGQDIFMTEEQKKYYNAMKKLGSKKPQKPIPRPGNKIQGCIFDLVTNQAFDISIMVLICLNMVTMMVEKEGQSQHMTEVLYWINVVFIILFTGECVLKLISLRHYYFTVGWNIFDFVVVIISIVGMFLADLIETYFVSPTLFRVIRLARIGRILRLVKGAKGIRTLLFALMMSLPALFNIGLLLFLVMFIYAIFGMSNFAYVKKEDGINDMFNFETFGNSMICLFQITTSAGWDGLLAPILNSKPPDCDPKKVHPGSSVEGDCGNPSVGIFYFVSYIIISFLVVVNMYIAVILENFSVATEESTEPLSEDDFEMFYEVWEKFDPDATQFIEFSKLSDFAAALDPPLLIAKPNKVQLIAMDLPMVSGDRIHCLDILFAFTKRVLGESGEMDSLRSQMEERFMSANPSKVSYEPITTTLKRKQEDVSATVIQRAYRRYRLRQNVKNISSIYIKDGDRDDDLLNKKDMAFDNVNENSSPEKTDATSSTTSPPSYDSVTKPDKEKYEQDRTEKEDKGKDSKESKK

Row | SMILES | IC50 (hNav1.7) [nM] | IC50 (hNav1.5) [nM] | IC50 (hNav1.3) [nM]
1 | C#CC[C@@H]1NC(=O)[C@H](CC(=O)O)NC(=O)[C@@H]2CCCN2C(=O)[C@H]([C@@H](C)CC)NC(=O)[C@@H]2CSSC[C@@H]3NC(=O)[C@H](C(C)C)NC(=O)[C@H](CC(C)C)NC(=O)[C@H](CC(N)=O)NC(=O)[C@@H]4CCCN4C(=O)[C@H](CCCNC(=N)N)NC(=O)[C@H](CSSC[C@H](NC(=O)[C@@H](N)CC(=O)O)C(=O)N[C@@H](CC(C)C)C(=O)NCC(=O)N[C@@H](C)C(=O)N[C@@H](Cc4ccccc4)C(=O)N[C@@H](CCCNC(=N)N)C(=O)N[C@@H](CCCCN)C(=O)N2)NC(=O)[C@H](CSSC[C@@H](C(=O)N[C@@H](CCCCN)C(=O)N[C@@H](Cc2ccc(O)cc2)C(=O)N[C@H](C(=O)N[C@@H](Cc2ccccc2)C(N)=O)C(C)C)NC(=O)[C@H](Cc2c[nH]c4ccccc24)NC(=O)[C@H](CCCCN)NC(=O)[C@H](Cc2c[nH]cn2)NC(=O)[C@H]([C@@H](C)O)NC(=O)[C@H](CCCNC(=N)N)NC(=O)[C@H](CO)NC3=O)NC(=O)[C@H](CCCCN)NC(=O)[C@H](CC(=O)O)NC1=O [compound 793] (H-DCLGAFRKCIPD[Pra]DKCCRPNLVCSRTHKWCKYVF-NH2; disulfide 2-17, 9-23, 16-30) | 530 | 28600 | 470
2 | C#CC[C@H](NC(C)=O)C(=O)NCCCC[C@@H]1NC(=O)[C@H](CC(=O)O)NC(=O)[C@@H]2CCCN2C(=O)[C@H]([C@@H](C)CC)NC(=O)[C@@H]2CSSC[C@@H]3NC(=O)[C@H](C(C)C)NC(=O)[C@H](CC(C)C)NC(=O)[C@H](CC(N)=O)NC(=O)[C@@H]4CCCN4C(=O)[C@H](CCCNC(=N)N)NC(=O)[C@H](CSSC[C@H](NC(=O)[C@@H](N)CC(=O)O)C(=O)N[C@@H](CC(C)C)C(=O)NCC(=O)N[C@@H](C)C(=O)N[C@@H](Cc4ccccc4)C(=O)N[C@@H](CCCNC(=N)N)C(=O)N[C@@H](CCCCN)C(=O)N2)NC(=O)[C@H](CSSC[C@@H](C(=O)N[C@@H](CCCCN)C(=O)N[C@@H](Cc2ccc(O)cc2)C(=O)N[C@H](C(=O)N[C@@H](Cc2ccccc2)C(N)=O)C(C)C)NC(=O)[C@H](Cc2c[nH]c4ccccc24)NC(=O)[C@H](CCCCN)NC(=O)[C@H](Cc2c[nH]cn2)NC(=O)[C@H]([C@@H](C)O)NC(=O)[C@H](CCCNC(=N)N)NC(=O)[C@H](CO)NC3=O)NC(=O)[C@H](CCCCN)NC(=O)[C@H](CC(=O)O)NC1=O [compound 794] (H-DCLGAFRKCIPDK([Pra-Ac])DKCCRPNLVCSRTHKWCKYVF-NH2; disulfide 2-17, 9-23, 16-30) | 890 | 37800 | 700
3 | C#CC[C@@H]1NC(=O)[C@H](CC(=O)O)NC(=O)[C@@H]2CCCN2C(=O)[C@H]([C@@H](C)CC)NC(=O)[C@@H]2CSSC[C@@H]3NC(=O)[C@H](C(C)C)NC(=O)[C@H](CC(C)C)NC(=O)[C@H](CC(N)=O)NC(=O)[C@@H]4CCCN4C(=O)[C@H](CCCNC(=N)N)NC(=O)[C@H](CSSC[C@H](NC(=O)[C@@H](N)CC(=O)O)C(=O)N[C@@H](CC(C)C)C(=O)NCC(=O)N[C@@H](C)C(=O)N[C@@H](CC(C)C)C(=O)N[C@@H](CCCNC(=N)N)C(=O)N[C@@H](CCCCN)C(=O)N2)NC(=O)[C@H](CSSC[C@@H](C(=O)N[C@@H](CCCCN)C(=O)N[C@@H](Cc2ccc(O)cc2)C(=O)N[C@H](C(=O)N[C@@H](Cc2ccccc2)C(N)=O)C(C)C)NC(=O)[C@H](Cc2c[nH]c4ccccc24)NC(=O)[C@H](CCCNC(=N)N)NC(=O)[C@H](Cc2c[nH]cn2)NC(=O)[C@H](CC(C)C)NC(=O)[C@H](CCCNC(=N)N)NC(=O)[C@H](CO)NC3=O)NC(=O)[C@H](CCCCN)NC(=O)[C@H](CC(=O)O)NC1=O [compound 796] (H-DCLGALRKCIPD[Pra]DKCCRPNLVCSRLHRWCKYVF-NH2; disulfide 2-17, 9-23, 16-30) | 220 | 36400 | 480
4 | C#CC[C@@H]1NC(=O)[C@H](CC(=O)O)NC(=O)[C@@H]2CCCN2C(=O)[C@H]([C@@H](C)CC)NC(=O)[C@@H]2CSSC[C@@H]3NC(=O)[C@H](C(C)C)NC(=O)[C@H](CC(C)C)NC(=O)[C@H](CC(N)=O)NC(=O)[C@@H]4CCCN4C(=O)[C@H](CCCNC(=N)N)NC(=O)[C@H](CSSC[C@H](NC(=O)[C@@H](N)CC(=O)O)C(=O)N[C@@H](CC(C)C)C(=O)NCC(=O)N[C@@H](CC)C(=O)N[C@@H](CC(C)C)C(=O)N[C@@H](CCCNC(=N)N)C(=O)N[C@@H](CCCCN)C(=O)N2)NC(=O)[C@H](CSSC[C@@H](C(=O)N[C@@H](CCCCN)C(=O)N[C@@H](Cc2ccc(O)cc2)C(=O)N[C@H](C(=O)N[C@@H](Cc2ccccc2)C(N)=O)C(C)C)NC(=O)[C@H](Cc2c[nH]c4ccccc24)NC(=O)[C@H](CCCCN)NC(=O)[C@H](Cc2c[nH]cn2)NC(=O)[C@H]([C@@H](C)O)NC(=O)[C@H](CCCNC(=N)N)NC(=O)[C@H](CO)NC3=O)NC(=O)[C@H](CCCCN)NC(=O)[C@H](CC(=O)O)NC1=O [compound 797] (H-DCLG[Abu]LRKCIPD[Pra]DKCCRPNLVCSRTHKWCKYVF-NH2; disulfide 2-17, 9-23, 16-30) | 520 | 34000 | 930
5 | C#CC[C@@H]1NC(=O)[C@H](CC(=O)O)NC(=O)[C@@H]2CCCN2C(=O)[C@H](CCC(=O)O)NC(=O)[C@@H]2CSSC[C@@H]3NC(=O)[C@H](C(C)C)NC(=O)[C@H](CC(C)C)NC(=O)[C@H](CC(N)=O)NC(=O)[C@@H]4CCCN4C(=O)[C@H](CCCNC(=N)N)NC(=O)[C@H](CSSC[C@H](NC(=O)[C@@H](N)CC(=O)O)C(=O)N[C@@H](CC(C)C)C(=O)NCC(=O)N[C@@H](C)C(=O)N[C@@H](Cc4ccccc4)C(=O)N[C@@H](CCCNC(=N)N)C(=O)N[C@@H](CCCCN)C(=O)N2)NC(=O)[C@H](CSSC[C@@H](C(=O)N[C@@H](CCCCN)C(=O)N[C@@H](Cc2ccc(O)cc2)C(=O)N[C@H](C(=O)N[C@@H](Cc2ccccc2)C(N)=O)C(C)C)NC(=O)[C@H](Cc2c[nH]c4ccccc24)NC(=O)[C@H](CCCNC(=N)N)NC(=O)[C@H](Cc2c[nH]cn2)NC(=O)[C@H](CC(C)C)NC(=O)[C@H](CCCNC(=N)N)NC(=O)[C@H](CO)NC3=O)NC(=O)[C@H](CCCCN)NC(=O)[C@H](CC(=O)O)NC1=O [compound 798] (H-DCLGAFRKCEPD[Pra]DKCCRPNLVCSRLHRWCKYVF-NH2; disulfide 2-17, 9-23, 16-30) | 540 | 32200 | 560
6 | C#CC[C@H](NC(C)=O)C(=O)NCCCC[C@@H]1NC(=O)[C@H](CC(=O)O)NC(=O)[C@@H]2CCCN2C(=O)[C@H]([C@@H](C)CC)NC(=O)[C@@H]2CSSC[C@@H]3NC(=O)[C@H](C(C)C)NC(=O)[C@H](CC(C)C)NC(=O)[C@H](CC(N)=O)NC(=O)[C@@H]4CCCN4C(=O)[C@H](CCCNC(=N)N)NC(=O)[C@H](CSSC[C@H](NC(=O)[C@@H](N)CC(=O)O)C(=O)N[C@@H](CC(C)C)C(=O)NCC(=O)N[C@@H](CC)C(=O)N[C@@H](CC(C)C)C(=O)N[C@@H](CCCNC(=N)N)C(=O)N[C@@H](CCCCN)C(=O)N2)NC(=O)[C@H](CSSC[C@@H](C(=O)N[C@@H](CCCCN)C(=O)N[C@@H](Cc2ccc(O)cc2)C(=O)N[C@H](C(=O)N[C@@H](Cc2ccccc2)C(N)=O)C(C)C)NC(=O)[C@H](Cc2c[nH]c4ccccc24)NC(=O)[C@H](CCCCN)NC(=O)[C@H](Cc2c[nH]cn2)NC(=O)[C@H]([C@@H](C)O)NC(=O)[C@H](CCCNC(=N)N)NC(=O)[C@H](CO)NC3=O)NC(=O)[C@H](CCCCN)NC(=O)[C@H](CC(=O)O)NC1=O [compound 799] (H-DCLG[Abu]LRKCIPDK([Pra-Ac])DKCCRPNLVCSRTHKWCKYVF-NH2; disulfide 2-17, 9-23, 16-30) | 750 | 28100 | 700
7 | C#CCCC(=O)NCCCC[C@@H]1NC(=O)[C@H](CC(=O)O)NC(=O)[C@@H]2CCCN2C(=O)[C@H]([C@@H](C)CC)NC(=O)[C@@H]2CSSC[C@@H]3NC(=O)[C@H](C(C)C)NC(=O)[C@H](CC(C)C)NC(=O)[C@H](CC(N)=O)NC(=O)[C@@H]4CCCN4C(=O)[C@H](CCCNC(=N)N)NC(=O)[C@H](CSSC[C@H](NC(=O)[C@@H](N)CC(=O)O)C(=O)N[C@@H](CC(C)C)C(=O)NCC(=O)N[C@@H](CC)C(=O)N[C@@H](CC(C)C)C(=O)N[C@@H](CCCNC(=N)N)C(=O)N[C@@H](CCCCN)C(=O)N2)NC(=O)[C@H](CSSC[C@@H](C(=O)N[C@@H](CCCCN)C(=O)N[C@@H](Cc2ccc(O)cc2)C(=O)N[C@H](C(=O)N[C@@H](Cc2ccccc2)C(N)=O)C(C)C)NC(=O)[C@H](Cc2c[nH]c4ccccc24)NC(=O)[C@H](CCCNC(=N)N)NC(=O)[C@H](Cc2c[nH]cn2)NC(=O)[C@H]([C@@H](C)O)NC(=O)[C@H](CCCNC(=N)N)NC(=O)[C@H](CO)NC3=O)NC(=O)[C@H](CCCCN)NC(=O)[C@H](CC(=O)O)NC1=O [compound 801] (H-DCLG[Abu]LRKCIPDK(Pent4ynoyl)DKCCRPNLVCSRTHRWCKYVF-NH2; disulfide 2-17, 9-23, 16-30) | 550 | 39700 | 810
8 | C#CC[C@@H]1NC(=O)[C@@H]2CCCN2C(=O)[C@H]([C@@H](C)CC)NC(=O)[C@@H]2CSSC[C@@H]3NC(=O)[C@H](C(C)C)NC(=O)[C@H](CC(C)C)NC(=O)[C@H](CC(N)=O)NC(=O)[C@@H]4CCCN4C(=O)[C@H](CCCNC(=N)N)NC(=O)[C@H](CSSC[C@H](NC(=O)[C@@H](N)CC(=O)O)C(=O)N[C@@H](CC(C)C)C(=O)NCC(=O)N[C@@H](C)C(=O)N[C@@H](CC(C)C)C(=O)N[C@@H](CCCNC(=N)N)C(=O)N[C@@H](CCCCN)C(=O)N2)NC(=O)[C@H](CSSC[C@@H](C(=O)N[C@@H](CCCCN)C(=O)N[C@@H](Cc2ccc(O)cc2)C(=O)N[C@H](C(=O)N[C@@H](Cc2ccccc2)C(N)=O)C(C)C)NC(=O)[C@H](Cc2c[nH]c4ccccc24)NC(=O)[C@H](CCCNC(=N)N)NC(=O)[C@H](Cc2c[nH]cn2)NC(=O)[C@H](CC(C)C)NC(=O)[C@H](CCCNC(=N)N)NC(=O)[C@H](CO)NC3=O)NC(=O)[C@H](CCCCN)NC(=O)[C@H](CC(=O)O)NC(=O)[C@H](CC(N)=O)NC1=O [compound 802] | 260 | > 50000 | 540
